From patent publication US7781592B2, “Thione derivative, method for the preparation thereof, and pharmaceutical composition containing the same” (CJ Cheiljedang Corporation, priority 2003, dated 2010)

Legend:
COX-1 = target: T1, COX-1 (Homo sapiens, UniProt P23219); experiment: Assay for the COX-1 inhibitory activity using U-937 (PGE2 inhibition); format: cell-based; settings: test compound 1 μM, U-937 human lymphoma cells, arachidonic acid substrate, PGE2 quantified; for inhibition at 1 µM: read-out: Cyclooxygenase (COX) Inhibition (%) COX-1 (1 μM)
T1 construct: host or cells: U-937 human lymphoma cells
T1 sequence (P23219 24-599): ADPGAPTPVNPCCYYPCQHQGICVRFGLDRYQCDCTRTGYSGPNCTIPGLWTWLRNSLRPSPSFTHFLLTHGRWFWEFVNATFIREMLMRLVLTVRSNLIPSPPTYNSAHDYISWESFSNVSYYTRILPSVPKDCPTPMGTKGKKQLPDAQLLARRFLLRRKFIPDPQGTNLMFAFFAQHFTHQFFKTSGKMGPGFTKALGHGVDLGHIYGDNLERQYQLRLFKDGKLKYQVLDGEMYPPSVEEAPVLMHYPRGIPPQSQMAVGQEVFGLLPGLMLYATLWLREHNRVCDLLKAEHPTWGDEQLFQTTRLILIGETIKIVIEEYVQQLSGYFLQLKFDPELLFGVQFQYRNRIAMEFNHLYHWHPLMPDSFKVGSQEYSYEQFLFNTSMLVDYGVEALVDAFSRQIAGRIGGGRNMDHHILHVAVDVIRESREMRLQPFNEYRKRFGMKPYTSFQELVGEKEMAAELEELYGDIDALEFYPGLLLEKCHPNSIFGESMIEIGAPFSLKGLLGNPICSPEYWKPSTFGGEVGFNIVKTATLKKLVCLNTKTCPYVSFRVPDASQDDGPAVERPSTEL
Protocol: The collected cells were diluted with HBSS (×1, Hank's balanced salt solution) to a concentration of 1×10^6 cells/ml. 1 ml of the dilute cell solution was placed into each well of 12-well plates. 5 μl of 1 μM solution of a test compound in DMSO and 5 μl of DMSO as a control were added to the wells. The wells were incubated in CO2 incubator at 37° C. for 15 minutes. Separately, 10 mM stock solution of arachidonic acid in ethanol was diluted ten times in ethanol to prepare 1 mM solution of arachidonic acid. Arachidonic acid acts as a substrate. 10 μl of the 1 mM solution of arachidonic acid was added to each well and incubated at CO2 incubator at 37° C. for 30 minutes. The cell solution of each well was placed in a centrifuge test tube and centrifuged at 10,000 rpm at 4° C. for 5 minutes. The concentration of PGE2 in the collected cells and the supernatant was quantified by means of a monoclonal kit (Cayman Chemicals). The percentages of PGE2 inhibition in a group of the test compound-treated cells in relation to a group of the DMSO-treated cells were calculated. Based on the calculated values, the COX-1 inhibitory activities were evaluated.
(§1) The percentages of the COX inhibition were calculated according to the following equation: % Inhibition=(concentration of PGE2 in test compound-untreated sample−concentration of PGE2 in test compound-treated sample)/(concentration of PGE2 in test compound-untreated sample)×100

COX-2 = target: T2, COX-2 (Mus musculus, UniProt Q05769); experiment: Assay for the COX-2 inhibitory activity using Raw 264.7 cell line (PGE2 inhibition); format: cell-based; settings: test compound 30 nM, RAW 264.7 cells, aspirin pre-treated, interferon + LPS 18 hours, PGE2 by EIA; for inhibition at 0.03 µM: RAW264.7, read-out: Cyclooxygenase (COX) Inhibition (%) COX-2 (30 nM)
T2 construct: host or cells: RAW 264.7 cells, pre-treated with aspirin, then induced with interferon and LPS
T2 sequence (Q05769 18-604): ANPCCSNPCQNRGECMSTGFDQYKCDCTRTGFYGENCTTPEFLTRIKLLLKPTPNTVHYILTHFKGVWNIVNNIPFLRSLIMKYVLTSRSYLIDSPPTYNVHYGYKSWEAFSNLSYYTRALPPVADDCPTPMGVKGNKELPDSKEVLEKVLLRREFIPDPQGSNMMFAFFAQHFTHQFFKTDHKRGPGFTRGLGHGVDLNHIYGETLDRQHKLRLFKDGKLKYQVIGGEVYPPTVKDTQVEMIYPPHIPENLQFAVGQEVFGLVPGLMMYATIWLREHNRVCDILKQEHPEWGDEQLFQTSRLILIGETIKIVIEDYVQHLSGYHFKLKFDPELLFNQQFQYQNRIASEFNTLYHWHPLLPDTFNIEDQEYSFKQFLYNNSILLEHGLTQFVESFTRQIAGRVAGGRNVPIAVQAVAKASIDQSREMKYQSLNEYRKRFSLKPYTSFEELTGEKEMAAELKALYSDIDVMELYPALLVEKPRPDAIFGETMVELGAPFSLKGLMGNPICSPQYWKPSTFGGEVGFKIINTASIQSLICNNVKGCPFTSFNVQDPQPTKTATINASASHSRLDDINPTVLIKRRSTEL
Protocol: Each well was treated with 250 μM of aspirin and incubated at 37° C. for 2 hours. After the culture media were replaced with new culture media, the new culture media were treated with a test compound (30 nM) and incubated for 30 minutes. Then, each well was treated with interferon ? (100 units/ml) and lipopolysaccharide (LPS, 100 ng/ml) and incubated for 18 hours. The culture media were transferred to other test tubes. The concentration of PGE2 was quantified by means of the EIA kit (Cayman Chemicals).
as §1

melting point [°C] | inhibition at 1 µM (COX-1) [%] | inhibition at 0.03 µM (COX-2) [%] | Cyclooxygenase (COX) Inhibition (%) COX-1 (1 μM) (COX-1) [%] | Cyclooxygenase (COX) Inhibition (%) COX-2 (30 nM) (COX-2) [%] | SMILES
210 to 212 | 15 | 36.6 | – | – | CCOc1ccc(-c2c(-c3ccc(S(C)(=O)=O)cc3)ssc2=S)cc1 [Example 39, 4-(4-ethoxyphenyl)-5-(4-methanesulfonylphenyl)-[1,2]dithiol-3-thione]
238 to 240 | 18.3 | 35.7 | – | – | CS(=O)(=O)c1ccc(-c2ssc(=S)c2-c2ccc(Br)cc2)cc1 [Example 40, 4-(4-bromophenyl)-5-(4-methanesulfonylphenyl)-[1,2]dithiol-3-thione]
200 to 202 | 24.5 | 20.1 | – | – | CS(=O)(=O)c1ccc(-c2ssc(=S)c2-c2ccccc2)cc1 [Example 42, 5-(4-methanesulfonylphenyl)-4-phenyl-[1,2]dithiol-3-thione]
220 to 222 | 19.3 | 38.4 | – | – | COc1ccc(-c2c(-c3ccc(S(C)(=O)=O)cc3)ssc2=S)cc1 [Example 43, 5-(4-methanesulfonylphenyl)-4-(4-methoxyphenyl)-[1,2]dithiol-3-thione]
240 to 242 | 25.5 | 20.1 | – | – | CS(=O)(=O)c1ccc(-c2ssc(=S)c2-c2ccccc2C(F)(F)F)cc1 [Example 44, 5-(4-methanesulfonylphenyl)-4-(2-trifluoromethylphenyl)-[1,2]dithiol-3-thione]
233 to 235 | 19.6 | 22.1 | – | – | CS(=O)(=O)c1ccc(-c2ssc(=S)c2-c2ccc(Cl)cc2)cc1 [Example 45, 4-(4-chlorophenyl)-5-(4-methanesulfonylphenyl)-[1,2]dithiol-3-thione]
– | 24.6 | 21 | – | – | CS(=O)(=O)c1ccc(-c2ssc(=S)c2-c2ccc(Cl)c(Cl)c2)cc1 [Example 46, 4-(3,4-dichlorophenyl)-5-(4-methanesulfonylphenyl)-[1,2]dithiol-3-thione]
245 to 247 | 22.5 | 21.4 | – | – | CS(=O)(=O)c1ccc(-c2ssc(=S)c2-c2ccncc2)cc1 [Example 47, 5-(4-methanesulfonylphenyl)-4-(pyridine-4-yl)-[1,2]dithiol-3-thione]
– | 23.6 | 24.2 | – | – | CS(=O)(=O)c1ccc(-c2ssc(=S)c2-c2cccnc2)cc1 [Example 48, 5-(4-methanesulfonylphenyl)-4-(pyridine-3-yl)-[1,2]dithiol-3-thione]
– | 28 | 19.5 | – | – | CS(=O)(=O)c1ccc(-c2ssc(=S)c2-c2ccccn2)cc1 [Example 49, 5-(4-methanesulfonylphenyl)-4-(pyridine-2-yl)-[1,2]dithiol-3-thione]
195 to 197 | 27.2 | 19.6 | – | – | CS(=O)(=O)c1ccc(-c2ssc(=S)c2-c2ccc(F)cc2)cc1 [Example 50, 4-(4-fluorophenyl)-5-(4-methanesulfonylphenyl)-[1,2]dithiol-3-thione]
176 to 177 | 27.6 | 19.8 | – | – | COc1ccc(OC)c(-c2c(-c3ccc(S(C)(=O)=O)cc3)ssc2=S)c1 [Example 51, 4-(2,5-dimethoxyphenyl)-5-(4-methanesulfonylphenyl)-[1,2]dithiol-3-thione]
164 to 165 | 26.6 | 19.1 | – | – | Cc1cc(C)cc(-c2c(-c3ccc(S(C)(=O)=O)cc3)ssc2=S)c1 [Example 52, 4-(3,5-dimethylphenyl)-5-(4-methanesulfonylphenyl)-[1,2]dithiol-3-thione]
212 to 213 | 26.7 | 21.6 | – | – | COc1cccc(-c2c(-c3ccc(S(C)(=O)=O)cc3)ssc2=S)c1 [Example 53, 5-(4-methanesulfonylphenyl)-4-(3-methoxyphenyl)-[1,2]dithiol-3-thione]
170 to 171 | 22.4 | 26.3 | – | – | CS(=O)(=O)c1ccc(-c2ssc(=S)c2-c2ccccc2[N+](=O)[O-])cc1 [Example 54, 5-(4-methanesulfonylphenyl)-4-(2-nitrophenyl)-[1,2]dithiol-3-thione]
188 to 189 | 27.6 | 20.2 | – | – | CS(=O)(=O)c1ccc(-c2ssc(=S)c2-c2cccc(C(F)(F)F)c2)cc1 [Example 55, 5-(4-methanesulfonylphenyl)-4-(3-trifluoromethylphenyl)-[1,2]dithiol-3-thione]
– | – | – | 20.6 | 25.6 | Cc1ccccc1-c1c(-c2ccc(S(C)(=O)=O)cc2)ssc1=S [Example 56, 5-(4-methanesulfonylphenyl)-4-o-toryl-[1,2]dithiol-3-thione]
161 to 162 | 20.7 | 21.1 | – | – | CS(=O)(=O)c1ccc(-c2ssc(=S)c2-c2ccccc2Cl)cc1 [Example 57, 4-(2-chlorophenyl)-5-(4-methanesulfonylphenyl)-[1,2]dithiol-3-thione]
176 to 177 | 24.2 | 20.1 | – | – | CS(=O)(=O)c1ccc(-c2ssc(=S)c2-c2ccc(Cl)cc2Cl)cc1 [Example 58, 4-(2,4-dichlorophenyl)-5-(4-methanesulfonylphenyl)-[1,2]dithiol-3-thione]
– | 22.6 | 20.1 | – | – | CS(=O)(=O)c1ccc(-c2ssc(=S)c2-c2ccc3ccccc3c2)cc1 [Example 65, 5-(4-methanesulfonylphenyl)-4-(naphthalene-2-yl)-[1,2]dithiol-3-thione]
– | – | – | 28.2 | 19.2 | CS(=O)(=O)c1ccc(-c2ssc(=S)c2-c2c(F)c(F)c(F)c(F)c2F)cc1 [Example 66, 5-(4-methanesulfonylphenyl)-4-pentafluorophenyl-[1,2]dithiol-3-thione]
– | – | – | 20.3 | 21.0 | Cc1ccc(-c2c(-c3ccc(S(C)(=O)=O)cc3Cl)ssc2=S)cc1 [Example 71, 5-(2-chloro-4-methanesulfonylphenyl)-4-p-toryl-[1,2]dithiol-3-thione]
– | – | – | 15.2 | 31.5 | Cc1ccc(-c2c(-c3ccc(S(C)(=O)=O)c(F)c3)ssc2=S)cc1 [Example 77, 5-(3-fluoro-4-methanesulfonylphenyl)-4-p-toryl-[1,2]dithiol-3-thione]
– | 18.5 | 32.5 | – | – | COc1ccc(-c2c(-c3ccc(S(C)(=O)=O)c(F)c3)ssc2=S)cc1 [Example 78, 5-(3-fluoro-4-methanesulfonylphenyl)-4-(4-methoxyphenyl)-[1,2]dithiol-3-thione]
– | – | – | 25.6 | 23.2 | Cc1ccc(-c2c(-c3ccc(S(C)(=O)=O)cc3)[nH][nH]c2=S)cc1 [Example 80, 5-(4-methanesulfonylphenyl)-4-p-toryl-[1,2]dihydropyrazole-3-thione]

SMILES | melting point [°C] | inhibition at 1 µM (COX-1) [%] | inhibition at 0.03 µM (COX-2) [%] | Cyclooxygenase (COX) Inhibition (%) COX-1 (1 μM) (COX-1) [%] | Cyclooxygenase (COX) Inhibition (%) COX-2 (30 nM) (COX-2) [%]
Cc1ccc(-c2c(-c3ccc(S(C)(=O)=O)cc3)ssc2=S)cc1 [Example 41, 5-(4-methanesulfonylphenyl)-4-p-toryl-[1,2]dithiol-3-thione] | – | – | – | 20.1 | 24.5
